In patent publication US20020026053A1, “Novel 3-(substituted) -2- indolinones compounds and use thereof as inhibitors of protein kinase activity” (priority 1997, published 2002):
Values joined by “and” are separate entries in the source; they are usually repeats but may differ in a detail not shown here. Identical values can stand only once.

Test system: FLK-1 receptor
Assay: FLK-1 Assay (cellular/catalytic ELISA, VEGF-stimulated phosphotyrosine)
Format: cell-based
Set-up: concentration or dose not given beside the values
Details: not given
Method in brief: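 NIH3T3 C7#3 cells engineered to express Flk-1 were serum-starved overnight (0.1% FBS), then exposed to compound for 2 h at 37 °C (final dilution 1:200, 0.5% DMSO) before VEGF stimulation. Lysates captured on anti-FLK-1 antiserum plates; phosphotyrosine detected by UB40 antibody/POD-ABTS ELISA versus untreated controls.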

Structure (SMILES)	Flk Kinase % Inhibition (P.110) [%]
CCOc1ccccc1C=C1C(=O)Nc2c(Br)cc(Br)c(C)c21 [10717/H02]	4.0
Cc1c(Br)cc(Br)c2c1C(=Cc1cccs1)C(=O)N2 [10717/H03]	8.6
Cc1c(Br)cc(Br)c2c1C(=Cc1cccn1C)C(=O)N2 [10717/H04]	0.4
COc1ccc(C=C2C(=O)Nc3c(Br)cc(Br)c(C)c32)cc1OC [10720/H04]	−5.8
Cc1c(Br)cc(Br)c2c1C(=Cc1ccccc1O)C(=O)N2 [10720/H05]	−12.3
Cc1c(Br)cc(Br)c2c1C(=Cc1ccccc1)C(=O)N2 [10720/H06]	22.3
CSc1ccc(C=C2C(=O)Nc3c(Br)cc(Br)c(C)c32)s1 [10720/H07]	−2.9
Cc1cc(O)cc(O)c1C=C1C(=O)Nc2c(Br)cc(Br)c(C)c21 [10720/H08]	−23.7
CCOc1cc(C=C2C(=O)Nc3c(Br)cc(Br)c(C)c32)ccc1O [10720/H09]	−4.5
COc1ccc(O)c(C=C2C(=O)Nc3c(Br)cc(Br)c(C)c32)c1 [10720/H10]	−22.8
Cc1c(Br)cc(Br)c2c1C(=Cc1ncc[nH]1)C(=O)N2 [10720/H11]	−8.8
Cc1c(Br)cc(Br)c2c1C(=Cc1nc3ccccc3n1C)C(=O)N2 [10721/H02]	5.5
Cc1c(Br)cc(Br)c2c1C(=Cc1nn(C)cc1Cl)C(=O)N2 [10721/H03]	7.8
Cc1cc(C=C2C(=O)Nc3c(Br)cc(Br)c(C)c32)sc1C [10721/H04]	0.7
Cc1c(Br)cc(Br)c2c1C(=Cc1cc3c([nH]1)CCCC3)C(=O)N2 [10721/H05]	−8.4
Cc1c(Br)cc(Br)c2c1C(=Cc1cc([N+](=O)[O-])cc(CCl)c1O)C(=O)N2 [10721/H06]	−7.9
Cc1c(Br)cc(Br)c2c1C(=Cc1ccc(Cl)s1)C(=O)N2 [10721/H07]	−7.0
Cc1cc(C)c(C=C2C(=O)Nc3c(Br)cc(Br)c(C)c32)[nH]1 [10721/H08]	−6.8
Cc1c(Br)cc(Br)c2c1C(=Cc1ccc(O)c(C(C)(C)C)c1)C(=O)N2 [10721/H09]	7.0
Cc1c(Br)cc(Br)c2c1C(=Cc1cc(Br)c(O)c(C(C)(C)C)c1)C(=O)N2 [10721/H10]	10.2
Cc1c(Br)cc(Br)c2c1C(=Cc1cc(C(C)(C)C)c(O)c(C(C)(C)C)c1)C(=O)N2 [10721/H11]	−6.0
Cc1c(Br)cc(Br)c2c1C(=Cc1cc([N+](=O)[O-])c(O)c(C(C)(C)C)c1)C(=O)N2 [10722/H02]	4.2
Cc1c(Br)cc(Br)c2c1C(=Cc1c(O)cc(O)cc1O)C(=O)N2 [10722/H03]	2.1

Structure (SMILES)	Flk Kinase % Inhibition (P.110) [%]
Cc1c(Br)cc(Br)c2c1C(=Cc1ccc([N+](=O)[O-])s1)C(=O)N2 [10722/H04]	3.8
Cc1c(Br)cc(Br)c2c1C(=Cc1ccc(C(=O)O)cc1)C(=O)N2 [10722/H05]	4.3
Cc1c(Br)cc(Br)c2c1C(=Cc1ccc(F)cc1F)C(=O)N2 [10722/H06]	18.9
Cc1cc(C=C2C(=O)Nc3c(Br)cc(Br)c(C)c32)cc(C)c1O [10722/H07]	2.3
Cc1c(Br)cc(Br)c2c1C(=Cc1cc(Cl)c(O)c(C(C)(C)C)c1)C(=O)N2 [10722/H08]	−20.3
Cc1c(Br)cc(Br)c2c1C(=Cc1csc([N+](=O)[O-])c1)C(=O)N2 [10722/H09]	3.3
CCCCN(CCCC)c1ccc(C=C2C(=O)Nc3c(Br)cc(Br)c(C)c32)cc1 [10722/H10]	−14.1
Cc1c(Br)cc(Br)c2c1C(=Cc1ccc(C(F)(F)F)cc1)C(=O)N2 [10722/H11]	−3.3
Cc1c(Br)cc(Br)c2c1C(=Cc1ccc(O)c(O)c1O)C(=O)N2 [10723/H02]	9.0
COc1cccc(C=C2C(=O)Nc3c(Br)cc(Br)c(C)c32)c1O [10723/H03]	6.1
Cc1c(Br)cc(Br)c2c1C(=Cc1cc(O)c(O)c(Br)c1)C(=O)N2 [10723/H04]	−20.2
CC(=O)Oc1ccc(C=C2C(=O)Nc3c(Br)cc(Br)c(C)c32)cc1OC(C)=O [10723/H05]	−2.5
Cc1cc(C=C2C(=O)Nc3c(Br)cc(Br)c(C)c32)ccc1O [10723/H06]	10.6
Cc1c(Br)cc(Br)c2c1C(=Cc1ccccc1Br)C(=O)N2 [10723/H07]	5.0
Cc1c(Br)cc(Br)c2c1C(=Cc1ccc(O)cc1O)C(=O)N2 [10723/H08]	−4.2
COc1ccc(C=C2C(=O)Nc3c(Br)cc(Br)c(C)c32)c(O)c1 [10723/H09]	−0.4
Cc1c(Br)cc(Br)c2c1C(=Cc1cccc(Br)c1)C(=O)N2 [10723/H10]	−13.4
Cc1c(Br)cc(Br)c2c1C(=Cc1cc(C(C)(C)C)cc(C(C)(C)C)c1O)C(=O)N2 [10723/H11]	−5.1
Cc1c(Br)cc(Br)c2c1C(=Cc1ccc(N(C)C)c3ccccc13)C(=O)N2 [10724/H02]	11.5
Cc1c(Br)cc(Br)c2c1C(=Cc1ccc(O)c([N+](=O)[O-])c1)C(=O)N2 [10724/H03]	1.8
Cc1c(Br)cc(Br)c2c1C(=Cc1ccc([N+](=O)[O-])c(O)c1)C(=O)N2 [10724/H04]	−3.0
Cc1c(Br)cc(Br)c2c1C(=Cc1cc3c4c(c1O)CCCN4CCC3)C(=O)N2 [10724/H05]	−0.4
Cc1c(Br)cc(Br)c2c1C(=Cc1cc(C(C)C)c(O)c(C(C)C)c1)C(=O)N2 [10724/H06]	−5.1

Structure (SMILES)	Flk Kinase % Inhibition (P.110) [%]
Cc1c(Br)cc(Br)c2c1C(=Cc1cc3ccccc3o1)C(=O)N2 [10724/H07]	1.1
COc1cc(O)c(C=C2C(=O)Nc3c(Br)cc(Br)c(C)c32)c(OC)c1 [10724/H08]	13.1
Cc1c(Br)cc(Br)c2c1C(=Cc1cccn1-c1ccc(Cl)cc1)C(=O)N2 [10724/H09]	1.3
CCc1ccc(C=C2C(=O)Nc3c(Br)cc(Br)c(C)c32)o1 [10724/H10]	5.8
Cc1c(Br)cc(Br)c2c1C(=Cc1sc3scc(C)c3c1C)C(=O)N2 [10724/H11]	8.6
Cc1c(Br)cc(Br)c2c1C(=Cc1sccc1Br)C(=O)N2 [10725/H02]	−7.6
COc1ccc(Br)c(C=C2C(=O)Nc3c(Br)cc(Br)c(C)c32)c1O [10725/H03]	−5.8
Cc1ccc(C=C2C(=O)Nc3c(Br)cc(Br)c(C)c32)o1 [10725/H04]	−5.1
Cc1cc(C=C2C(=O)Nc3c(Br)cc(Br)c(C)c32)[nH]n1 [10725/H05]	21.6
COc1cc(C)cc(O)c1C=C1C(=O)Nc2c(Br)cc(Br)c(C)c21 [10725/H06]	16.1
Cc1c(Br)cc(Br)c2c1C(=Cc1ccc(N3CCN(C=O)CC3)cc1)C(=O)N2 [10725/H07]	8.6
Cc1c(Br)cc(Br)c2c1C(=Cc1ccc(N3CCOCC3)cc1)C(=O)N2 [10725/H08]	17.2
COC(=O)Cc1c(Cl)[nH]c(C=C2C(=O)Nc3c(Br)cc(Br)c(C)c32)c1C(=O)OC [10725/H09]	−6.1
Cc1c(Br)cc(Br)c2c1C(=Cc1c(Br)cnn1-c1ccc(Cl)cc1)C(=O)N2 [10725/H10]	7.8
Cc1c(Br)cc(Br)c2c1C(=Cc1c[nH]cn1)C(=O)N2 [10725/H11]	−40.8
Cc1c(Br)cc(Br)c2c1C(=Cc1ccccc1[N+](=O)[O-])C(=O)N2 [10726/H02]	−8.5
CCOC(=O)c1[nH]c(C=C2C(=O)Nc3c(Br)cc(Br)c(C)c32)c(C(=O)OC)c1C [10726/H03]	0.4
Cc1cc(C=C2C(=O)Nc3c(Br)cc(Br)c(C)c32)cc(C(C)(C)C)c1O [10726/H04]	2.5
COc1cccc(C=C2C(=O)Nc3ccc(S(=O)(=O)N4CCOCC4)cc32)c1 [10736/F10]	7.7
O=C1Nc2ccc(S(=O)(=O)N3CCOCC3)cc2C1=Cc1ccccc1Cl [10736/F11]	3.7
O=C1Nc2ccc(CCCl)cc2C1=Cc1ccc(Cl)cc1 [10736/G02]	−7.2
O=C1Nc2ccc(CCCl)cc2C1=Cc1ccccc1C(F)(F)F [10736/G03]	4.5
Cc1cccc(C=C2C(=O)Nc3ccc(CCCl)cc32)c1 [10736/G04]	13.0

Same assay, conditions: protocol P.110

Structure (SMILES)	Flk Kinase % Inhibition (P.110)
Cc1ccc(C=C2C(=O)Nc3ccc(CCCl)cc32)cc1 [10736/G05]	2.3% and 5.9%
O=C1Nc2ccc(CCCl)cc2C1=Cc1cccc(F)c1 [10736/G07]	9.4%
O=C1Nc2ccc(CCCl)cc2C1=Cc1ccccc1F [10736/G08]	−0.1%
CCc1ccc(C=C2C(=O)Nc3ccc(CCCl)cc32)cc1 [10736/G09]	−2.1%
COc1cccc(C=C2C(=O)Nc3ccc(CCCl)cc32)c1 [10736/G10]	6.0%
O=C1Nc2ccc(CCCl)cc2C1=Cc1ccccc1Cl [10736/G11]	0.0%
Cc1c(Br)cc(Br)c2c1C(=Cc1ccc(Cl)cc1)C(=O)N2 [10736/H02]	6.1%
Cc1c(Br)cc(Br)c2c1C(=Cc1ccccc1C(F)(F)F)C(=O)N2 [10736/H03]	15.1%
Cc1cccc(C=C2C(=O)Nc3c(Br)cc(Br)c(C)c32)c1 [10736/H04]	14.0%
Cc1ccc(C=C2C(=O)Nc3c(Br)cc(Br)c(C)c32)cc1 [10736/H05]	16.3%
